Assay results taken from patent US11649222B2, “Compounds” (UNIVERSITETET I OSLO, priority 2016, dated 2023).
Structures can show the parent of a compound that is named as a salt. Where two headings read alike, the source gives them in different places.

Experiments:
[1] = tested on: human hepG2 cells; assay: In vitro toxicity in human hepG2 cells (AlamarBlue viability); type: cell-based
Description: For viability assays, cells were seeded in white 96-well Nunclon plates at a density of 20,000 cells/well and left overnight to adhere before experiments were conducted. Zn chelators dissolved in DMSO were added to white 96-well plates containing 20000 HepG2 cells/well at concentrations ranging from 1 to 1×10^−6 mM (max DMSO concentration never exceeded 1%) and incubated for 24 hours at 37° C. After 24 hours, AlamarBlue® cell viability reagent (Thermo Fisher, Carlsbad, USA) was added (10% final concentration) and incubated for 4 hours at 37° C.

[2] = tested on: resistant gram-negative MBL-based bacteria; assay: MICx: adjuvant concentration giving carbapenem MIC ≤ 2 mg/L; type: cell-based
Description: • Plate bacterial strain(s) on appropriate media: • Gram-negative bacteria with ESBLs or carbapenemases: green agar plates with 100 mg/L ampicillin • Gram-negative bacteria without β-lactamases: green agar plates • Gram-positive bacteria (Staphylococci and Enterococci): blood agar plates • Incubate o.n. at 37° C. […] (Should be used within 15 min of preparation). • Dilute the 0.5 McFarland suspension 1:100 into MH broth. […] Plate 10 μl of the dilution on MH agar plates (×2). Incubate o.n. at 37° C., count the colonies and calculate the final CFU/ml inoculum in the plate by multiplying the average number of colonies with 10000 and divide by 2. The final inoculum should be between 3-7×10^5 CFU/ml. • Add 50 μl of the prepared bacterial suspension to each well in the microtiter plate except negative growth control. Preparation of Compounds/Antibiotics • Calculate the desired concentration-range and volume of the compounds/antibiotics in the assay. […] Dilute the stock solution in MH broth. Make subsequent 2-fold dilutions in MH broth of the desired concentrations if a concentration range is to be tested (remember the extra dilution factor in the assay plate). Always include extra volume for pipetting. Take into consideration stock solutions that are made in buffers that have an effect on bacterial growth (e.g. DMSO).

[3] = human hepG2 cells, 24 hours, AlamarBlue, 8 replicates, read-out: IC50
[4] = human hepG2 cells, read-out: IC50h
[5] = lowest concentration of compound X that results in a MIC value of ≤ 2 mg/L for carbapenem antibiotics

Question: `O=C(O)CN1CCN(CC(=O)O)CCN([C@H](CO)[C@H](O)CO)CCN(CC(=O)O)CC1` [Butrol, reference compound] was tested. Which IC50 ([1]; estimated values (footnote c), read-out: IC50h) did it give?
Answer: The IC50 was 60 µM.

Question: And the MICx ([2]; estimated values (footnote c))?
Answer: The MICx was 15^c μM.

Question: Which results are given for `COC(=O)c1ccc(CN(Cc2ccccn2)Cc2ccccn2)nc1` [Example 12, methyl 6-((bis(pyridin-2-ylmethyl)amino)methyl)nicotinate]?
Answer: IC50 ([1]; Homo sapiens, HepG2, 24 h): 16.5 µM; IC50 ([1]; Homo sapiens, HepG2, read-out: IC50h): 16.4 µM; MICx [2]: 31 µM

Question: `OCc1ccc(CN(Cc2ccccn2)Cc2ccccn2)nc1` [Example 14, (6-((bis(pyridin-2-ylmethyl)amino)methyl)pyridin-3-yl) methanol] was tested. Which IC50 [1, 3] did it give?
Answer: Its IC50 is 12.4 µM.

Question: What about the IC50 [1, 4] of the same molecule?
Answer: The IC50 was 12.4 µM.

Question: What about the MICx [2, 5] of the same molecule?
Answer: The MICx was 31 µM.

Question: For `O=C(CN(CCN(Cc1ccccn1)Cc1ccccn1)Cc1ccccn1)Nc1ccc(CC(=O)NC(CO)(CO)CO)cc1` [Example 24, 2-((2-(bis(pyridin-2-ylmethyl)amino)ethyl)(pyridin-2-ylmethyl)amino)-N-(4-(2-(1,3-dihydroxy-2-(hydroxymethyl)propan-2-ylamino)-2-oxoethyl)phenyl)acetamide], which IC50 [1, 4] is on record?
Answer: Its IC50 is 60 µM.

Question: What about the MICx [2, 5] of the same molecule?
Answer: Its MICx is 31 µM.

Question: Which IC50 [1, 3] does the source give for `OC[C@H]1OC(O)[C@H](n2cc(CN(Cc3ccccn3)Cc3ccccn3)nn2)[C@@H](O)[C@@H]1O` (stereo partly drawn) [Example 84, (3R,4R,5S,6R)-3-(4-((bis(pyridin-2-ylmethyl)amino)methyl)-1H-1,2,3-triazol-1-yl)-6-(hydroxymethyl)tetrahydro-2H-pyran-2,4,5-triol] here?
Answer: Its IC50 is > 1000 µM.

Question: What about the IC50 [1, 4] of the same molecule?
Answer: The IC50 was 116 µM.

Question: What about the MICx [2, 5] of the same molecule?
Answer: Its MICx is 125 µM.

Question: Which results are given for `OC1O[C@H](Cn2cc(CN(CCN(Cc3ccccn3)Cc3ccccn3)Cc3ccccn3)nn2)[C@H](O)[C@H](O)[C@H]1O` (stereo partly shown) [Example 91]?
Answer: IC50 [1, 3]: 165 µM; IC50 [1, 4]: 165 µM; MICx [2, 5]: 31 µM

Question: How did the IC50 [1, 3] turn out when `O=C(NC[C@@H](O)CO)c1ccc(CN(Cc2ccccn2)Cc2ccccn2)nc1` [Example 97, (R)-6-((bis(pyridin-2-ylmethyl)amino)methyl)-N-(2,3-dihydroxypropyl)nicotinamide] was run?
Answer: The IC50 was 131 µM.

Question: `O=C(NCCc1ccc(-n2cc(CN(Cc3ccccn3)Cc3ccccn3)nn2)cc1)[C@H]1O[C@H](O)[C@H](O)[C@@H](O)[C@H]1O` [Example 101, (2S,3R,4S,5R,6S)—N-(4-(4-((Bis(pyridin-2-ylmethyl)amino)methyl)-1H-1,2,3-triazol-1-yl)phenethyl)-3,4,5,6-tetrahydroxytetrahydro-2H-pyran-2-carboxamide] was tested. Which IC50 [1, 3] did it give?
Answer: The IC50 was ~220 µM.

Question: `O=C(Cc1ccc(-n2cc(CN(Cc3ccccn3)Cc3ccccn3)nn2)cc1)NC[C@H](O)CO` [Example 104, (S)-2-(4-(4-((bis(pyridin-2-ylmethyl)amino)methyl)-1H-1,2,3-triazol-1-yl)phenyl)-N-(2,3-dihydroxypropyl)acetamide] was tested. Which IC50 [1, 3] did it give?
Answer: The IC50 was 224 µM.

Question: With `O=C(CNCCc1ccc(NC(=O)CN(CCN(Cc2ccccn2)Cc2ccccn2)Cc2ccccn2)cc1)NCC(O)CO` (stereo not shown) [Example 108] as the molecule, how does the IC50 [1, 3] read?
Answer: Its IC50 is > 1000 µM.

Question: For `O=C(O)CNC(=O)CNC(=O)c1ccc(CN(Cc2ccccn2)Cc2ccccn2)nc1` [Example 109], which IC50 [1, 3] is on record?
Answer: The IC50 was 128 µM.

Question: `NCc1ccc(CN(Cc2ccccn2)Cc2ccccn2)nc1` [Example 147, 1-(5-(aminomethyl)pyridin-2-yl)-N,N-bis(pyridin-2-ylmethyl) methanamine hydrochloride] was tested. Which IC50 ([1]; Homo sapiens, HepG2, 24 h) did it give?
Answer: The IC50 was ~10 µM.

Question: How did the IC50 ([1]; Homo sapiens, HepG2, estimated values (footnote c), read-out: IC50h) turn out when `O=C(O)C[C@@H]1CC[C@H](NC(=O)c2ccc(CN(Cc3ccccn3)Cc3ccccn3)nc2)B(O)O1` [Example 163, 2-((3R,6S)-3-(6-((Bis(pyridin-2-ylmethyl)amino)methyl)nicotinamido)-2-hydroxy-1,2-oxaborinan-6-yl)acetic acid] was run?
Answer: Its IC50 is 100 µM.

Question: How did the IC50 [1, 3] turn out when `COC(=O)c1ccc(CN(Cc2ccccc2)Cc2ccccn2)nc1` [Example 186, methyl 6-((benzyl(pyridin-2-ylmethyl)amino)methyl)nicotinate] was run?
Answer: The IC50 was ~215 µM.

Question: For `c1ccc(CN(Cc2ccccn2)Cc2ccccn2)nc1` [TPA, N,N,N-tris(2-pyridylmethyl) amine, reference compound], which EC50 ([1]; Homo sapiens, HepG2) is on record?
Answer: Its EC50 is 10 µM.
